In PubChem BioAssay (NCI):
“And” between values parts separate entries of the source, which are not always exact repeats. Identical values can stand only once.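 Five concentrations, 48 hours, 96-well plates. GI50 marks 50% less growth. Definition used: TGI = concentration required for complete inhibition of growth.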

How the values were obtained:
Experiment in all cases: NCI-60 cell line screen, 48 h
[1] = test system: SK-MEL-2 melanoma
[2] = test system: CAKI-1 renal
[3] = test system: SNB-19 CNS
[4] = test system: RPMI-8226 leukemia
[5] = test system: SK-MEL-28 melanoma
[6] = test system: OVCAR-5 ovarian
[7] = test system: OVCAR-3 ovarian
[8] = test system: SF-268 CNS
[9] = test system: EKVX NSCLC
[10] = test system: NCI-H23 lung

Structure (SMILES) | GI50 [1] [µM] | TGI [1] | GI50 [2] [µM] | TGI [2] [µM] | GI50 [3] [µM] | TGI [3] [µM] | GI50 [4] | TGI [4] | GI50 [5] [µM] | TGI [5] [µM] | GI50 [6] [µM] | TGI [6] [µM] | GI50 [7] [µM] | TGI [7] | GI50 [8] [µM] | TGI [8] | GI50 [9] [µM] | TGI [9] | GI50 [10] [µM] | TGI [10] [µM]
C=C(C(=O)c1ccccc1)C(NC(C)(C)C)c1ccccc1 (stereo not drawn) | 1.88 | 4.78 µM | 1.91 | 7.42 | 4.2 | 16 | 1.84 µM | 6.44 µM | 1.84 | 3.72 | 2.37 | 4.65 | 1.3 | 3.24 µM | 3.61 | 18.6 µM | 3.53 | 13.7 µM | 1.77 | 4.93
CCc1ccc(Oc2c(-c3ccc(OCCc4cccc(C(F)(F)F)c4)cc3O)n[nH]c2C(F)(F)F)cc1 | 6.54 | 13.4 µM | 6.79 | 13.3 | 2.69 | 9.03 | 1.8 µM | 7.55 µM | 5.39 | 11.4 | 7.64 | 14.4 | 1.52 | 4.66 µM | 5.02 | 11 µM | 5.11 | 11.2 µM | 1.53 | 5.89
CC(C)(C)N1CC1CNC(=O)C(=O)NCC1CN1C(C)(C)C (stereo not drawn) | – | 10.2 µM | – | > 96.1 | – | > 25.5 | – | > 18.3 µM | – | 11.1 | – | 7.56 | – | 46.1 µM | – | 15.4 µM | – | > 31.1 µM | – | 5.96
CC[C@]12C=CCN3CC[C@@]4(c5ccc(OC)cc5N(C)[C@H]4[C@@](O)(C(=O)OC)[C@@H]1OC(=O)CCC(=O)O[C@H]1CC[C@H]4[C@@H]5CCC6=CC(=O)CC[C@@H]6[C@H]5CC[C@]14C)[C@@H]32 | 1.24 | 2.85 µM | 1.56 | > 50 | 2.31 | > 50 | 1.07 µM | 3.11 µM | 2.17 | > 50 | 1.9 | > 50 | 1.73 | 31.9 µM | 2.17 | > 50 µM | 1.7 | > 50 µM | 1.98 | > 50
Cc1ccc(NC(=S)NNC(=S)Nc2ccc(C)cc2)cc1 | 2.66 | 8.68 µM | 3.66 | > 100 | 8.36 | > 100 | 4.46 µM | 65.3 µM | 8.39 | > 100 | > 100 | > 100 | 2.9 | 7.51 µM | 6.05 | > 100 µM | 17.9 | > 100 µM | 5.98 | > 100
COc1cc(/C=C2\CCC/C(=C\c3cc(CN4CCCC4)c(O)c(OC)c3)C2=O)cc(CN2CCCC2)c1O | 5.09 | 19.5 µM | 5.51 | 17.7 | 8.21 | 20.8 | 2.16 µM | 7.58 µM | 10.1 | 22.7 | 4.18 | 13.4 | 3.89 | 13.8 µM | 4.53 | 16.3 µM | 6.94 | 20.2 µM | 4.81 | 19.8
C=C(C)COc1ccc2c(c1)CCC1C2CCC2(C)C(=O)/C(=N/O)CC12 (stereo not drawn) | – | 14.1 µM | – | 10.2 | – | 25.4 | – | 7.54 µM | – | 33.3 | – | 18.7 | – | 14.6 µM | – | 23.3 µM | – | 9.32 µM | – | 15.5
CCCCCCCCCCCCC(O)C1CCC(C(O)CCCCC(O)CCCCCC2CC(CC(C)=O)C(=O)O2)O1 (stereo not drawn) | 1.36 | 2.88 µM and 15.8 µM | 2.29 | 22.3 | – | 15.3 | 1.28 µM and 0.367 µM | 4.73 µM and 18.5 µM | 2.85 | 14 | 3.92 | 23.6 | 1.37 | 2.65 µM and 7.59 µM | 1.37 | 4.45 µM and 17.1 µM | 1.08 | 4.11 µM and 20.8 µM | – | 13.6
NC(=O)c1c[nH]c2ncnc(N)c12 | 47.2 | > 100 µM | 2.69 | 33.8 | > 100 | > 100 | 14.4 µM | 50.7 µM | 58.8 | > 100 | > 100 | > 100 | 23.5 | > 100 µM | 39.3 | > 100 µM | 39 | > 100 µM | > 100 | > 100
CC[O-].CC[O-].O=C1C=C([O-])C(=O)c2ccccc21.O=C1C=C([O-])C(=O)c2ccccc21.[Ti+4] | 9.89 | > 100 µM | > 100 | > 100 | > 84.5 | > 100 | 8.08 µM | > 100 µM | > 100 | > 100 | > 100 | > 100 | > 100 | > 100 µM | > 100 | > 100 µM | > 100 | > 100 µM | 4.43 | > 100
O=C(/C=C(/C=C/c1cccc2[nH]ccc12)OB(F)F)/C=C/c1cccc2[nH]ccc12 | 2.09 | 5.63 µM | 0.876 | 3.13 | 1.44 | 4.16 | 0.354 µM | 2.55 µM | 1.04 | 2.73 | 1.42 | 3.59 | 0.353 | 1.23 µM | 1.13 | 3.98 µM | 1.46 | 5.54 µM | 0.838 | 3.92
